Assay results reported in DBAASP.
In brackets after ≈: the same amount, converted by molar mass.

Experiments:
Test in all cases: ≥ marks a high value that may be exact or a test limit, other limits are often not marked, values filed in µg/mL are converted to µM
Bacillus cereus ACM 446 = system: Bacillus cereus ACM 446
Escherichia coli L361 = system: Escherichia coli L361
Escherichia coli O9 = system: Escherichia coli O9
[1] = system: Listeria monocytogenes NCTC 7973
Pseudomonas fluorescens = system: Pseudomonas fluorescens
[2] = system: Salmonella enterica subsp. enterica serovar Salford IMVS 1710
[3] = system: Staphylococcus aureus NCTC 6571
[4] = system: Bacillus megaterium ATCC 10778
[5] = system: Bacillus subtilis ATCC 6633
Candida albicans MDM8 = system: Candida albicans MDM8
[6] = system: Candida tropicalis IOC 4560
[7] = system: Enterobacter cloacae beta-12
Escherichia coli SBS 363 = system: Escherichia coli SBS 363
Micrococcus luteus A270 = system: Micrococcus luteus A270
[8] = system: Pseudomonas aeruginosa ATCC 27853
[9] = system: Serratia marcescens ATCC 4112
[10] = system: Staphylococcus aureus ATCC 29213
[11] = system: Bacillus subtilis ATCC 23857
Citrobacter freundii = system: Citrobacter freundii
Enterobacter cloacae = system: Enterobacter cloacae
Enterococcus faecalis = system: Enterococcus faecalis
[12] = system: Escherichia coli ATCC 25922
Escherichia coli NDM-1 = system: Escherichia coli NDM-1
Klebsiella oxytoca = system: Klebsiella oxytoca
[13] = system: Klebsiella pneumoniae NDM-1
Morganella morganii = system: Morganella morganii
[14] = system: Staphylococcus aureus ATCC 1717
Acinetobacter baumannii = system: Acinetobacter baumannii
[15] = system: Bacillus cereus CGMCC 1.932
[16] = system: Bacillus subtilis CMCC 63501
[17] = system: Enterococcus faecalis ATCC 29212
Escherichia coli 078 = system: Escherichia coli 078
Escherichia coli K88 = system: Escherichia coli K88
Escherichia coli K99 = system: Escherichia coli K99
Escherichia coli UB1005 = system: Escherichia coli UB1005
[18] = system: Listeria monocytogenes CGMCC 1.1075
[19] = system: Pseudomonas aeruginosa PAO1
[20] = system: Salmonella enterica subsp. enterica serovar Pullorum ATCC 7913
[21] = system: Salmonella enterica subsp. enterica serovar Typhimurium ATCC 14028
[22] = system: Salmonella typhimurium ATCC 7731
[23] = system: Staphylococcus aureus ATCC 25923
[24] = system: Staphylococcus aureus ATCC 43300
[25] = system: Staphylococcus epidermidis ATCC 12228
[26] = system: Salmonella enterica subsp. enterica serovar Pullorum C79-13
[27] = system: Salmonella enterica subsp. enterica serovar Typhi CMCC 50071
[28] = system: Salmonella enterica subsp. enterica serovar Typhimurium C77-31

**Q.** With `CC[C@H](C)[C@H](NC(=O)[C@H](CO)NC(=O)[C@@H]1CCCN1C(=O)[C@H](C)NC(=O)CNC(=O)[C@H](CC(C)C)NC(=O)[C@H](CCCCN)NC(=O)[C@H](CCCCN)NC(=O)[C@H](CCSC)NC(=O)[C@H](CCCN=C(N)N)NC(=O)[C@H](Cc1c[nH]c2ccccc12)NC(=O)[C@H](CCC(N)=O)NC(=O)[C@H](Cc1c[nH]c2ccccc12)NC(=O)[C@H](CCCN=C(N)N)NC(=O)[C@H](CCCN=C(N)N)NC(=O)[C@H](CS)NC(=O)[C@H](CCCCN)NC(=O)[C@@H](N)Cc1ccccc1)C(=O)N[C@H](C(=O)N[C@@H](CS)C(=O)N[C@H](C(=O)N[C@@H](CCCN=C(N)N)C(=O)N[C@@H](CCCN=C(N)N)C(=O)N[C@@H](C)C(=O)N[C@@H](Cc1ccccc1)C(=O)N[C@@H](C)C(=O)O)C(C)C)[C@@H](C)O` [FKCRRWQWRMKKLGAPSITCVRRAFA] as the compound, how does the MIC (Bacillus cereus ACM 446) read?
**A.** 8 µM (≈ 25.6 µg/mL)

**Q.** And the MIC (Escherichia coli L361)?
**A.** 4 µM (≈ 12.8 µg/mL)

**Q.** What about the MIC (Escherichia coli O9) of the same compound?
**A.** 8 µM (≈ 25.6 µg/mL)

**Q.** What about the MIC [1] of the same compound?
**A.** 4 µM (≈ 12.8 µg/mL)

**Q.** And the MIC (Pseudomonas fluorescens)?
**A.** 6 µM (≈ 19.2 µg/mL)

**Q.** And the MIC [2]?
**A.** 4 µM (≈ 12.8 µg/mL)

**Q.** And the MIC [3]?
**A.** 6 µM (≈ 19.2 µg/mL)

**Q.** How did the MIC [4] turn out when `CC(C)C[C@H](NC(=O)[C@H](C)NC(=O)CNC(=O)[C@H](CC(C)C)NC(=O)[C@@H](N)Cc1ccccc1)C(=O)N[C@@H](Cc1c[nH]c2ccccc12)C(=O)N[C@@H](CCCN=C(N)N)C(=O)N[C@H](C(=O)N[C@@H](C)C(=O)N[C@@H](CCCCN)C(=O)N[C@@H](CO)C(=O)N[C@H](C(=O)N[C@@H](Cc1ccccc1)C(N)=O)C(C)C)C(C)C` [FLGALWRVAKSVF] was run?
**A.** 0.8 µM (≈ 1.19 µg/mL)

**Q.** And the MIC [5]?
**A.** 0.8 µM (≈ 1.19 µg/mL)

**Q.** What about the MIC (Candida albicans MDM8) of the same compound?
**A.** 1.6 µM (≈ 2.39 µg/mL)

**Q.** What about the MIC [6] of the same compound?
**A.** 1.6 µM (≈ 2.39 µg/mL)

**Q.** And the MIC [7]?
**A.** 6.3 µM (≈ 9.4 µg/mL)

**Q.** And the MIC (Escherichia coli SBS 363)?
**A.** 1.6 µM (≈ 2.39 µg/mL)

**Q.** And the MIC (Micrococcus luteus A270)?
**A.** 1.6 µM (≈ 2.39 µg/mL)

**Q.** And the MIC [8]?
**A.** 6.3 µM (≈ 9.4 µg/mL)

**Q.** And the MIC [9]?
**A.** 0.4 µM (≈ 0.597 µg/mL)

**Q.** What about the MIC [10] of the same compound?
**A.** 1.6 µM (≈ 2.39 µg/mL)

**Q.** For `CC[C@H](C)[C@H](NC(=O)CN)C(=O)N[C@@H](CCCCN)C(=O)N[C@@H](C)C(=O)NCC(=O)N[C@H](C(=O)N[C@H](C(=O)N[C@H](C(=O)N[C@@H](CCCCN)C(=O)N[C@H](C(=O)N[C@@H](CCCCN)C(=O)N[C@@H](CCCCN)C(N)=O)[C@@H](C)CC)[C@@H](C)CC)[C@@H](C)CC)[C@@H](C)CC` [GIKAGIIIKIKK], which MIC [11] is on record?
**A.** 16 µM (≈ 20.5 µg/mL)

**Q.** What about the MIC (Citrobacter freundii) of the same compound?
**A.** 16 µM (≈ 20.5 µg/mL)

**Q.** What about the MIC (Enterobacter cloacae) of the same compound?
**A.** 22.6 µM (≈ 29 µg/mL)

**Q.** And the MIC (Enterococcus faecalis)?
**A.** ≥ 64 µM

**Q.** What about the MIC [12] of the same compound?
**A.** 16 µM (≈ 20.5 µg/mL)

**Q.** What about the MIC (Escherichia coli NDM-1) of the same compound?
**A.** 16 µM (≈ 20.5 µg/mL)

**Q.** What about the MIC (Klebsiella oxytoca) of the same compound?
**A.** ≥ 32 µM

**Q.** What about the MIC [13] of the same compound?
**A.** 22.6 µM (≈ 29 µg/mL)

**Q.** And the MIC (Morganella morganii)?
**A.** ≥ 128 µM

**Q.** And the MIC [14]?
**A.** ≥ 128 µM

**Q.** Which results are given for `CC(C)[C@H](NC(=O)[C@H](CCCN=C(N)N)NC(=O)[C@H](Cc1c[nH]c2ccccc12)NC(=O)[C@H](CCCN=C(N)N)NC(=O)[C@H](Cc1c[nH]c2ccccc12)NC(=O)[C@H](Cc1c[nH]c2ccccc12)NC(=O)[C@H](Cc1c[nH]c2ccccc12)NC(=O)[C@H](CCCN=C(N)N)NC(=O)[C@H](Cc1c[nH]c2ccccc12)NC(=O)[C@H](CCCN=C(N)N)NC(=O)CN)C(N)=O` [GRWRWWWRWRV]?
**A.** MIC (Acinetobacter baumannii): 1 µM (≈ 1.73 µg/mL); MIC [15]: 8 µM (≈ 13.8 µg/mL); MIC [16]: 4 µM (≈ 6.92 µg/mL); MIC [17]: 2 µM (≈ 3.46 µg/mL); MIC (Escherichia coli 078): 4 µM (≈ 6.92 µg/mL); MIC (Escherichia coli K88): 1 µM (≈ 1.73 µg/mL); MIC (Escherichia coli K99): 2 µM (≈ 3.46 µg/mL); MIC (Escherichia coli UB1005): 2 µM (≈ 3.46 µg/mL); MIC [18]: 1 µM (≈ 1.73 µg/mL); MIC [8]: 8 µM (≈ 13.8 µg/mL); MIC [19]: 4 µM (≈ 6.92 µg/mL); MIC [20]: 4 µM (≈ 6.92 µg/mL); MIC [21]: 8 µM (≈ 13.8 µg/mL); MIC [22]: 8 µM (≈ 13.8 µg/mL); MIC [23]: 4 µM (≈ 6.92 µg/mL); MIC [24]: 4 µM (≈ 6.92 µg/mL); MIC [25]: 2 µM (≈ 3.46 µg/mL)

**Q.** Which results are given for `NCCCC[C@H](NC(=O)[C@H](Cc1c[nH]c2ccccc12)NC(=O)[C@H](CCCN=C(N)N)NC(=O)[C@H](CCCN=C(N)N)NC(=O)[C@H](Cc1c[nH]c2ccccc12)NC(=O)[C@H](CCC(N)=O)NC(=O)[C@H](Cc1c[nH]c2ccccc12)NC(=O)[C@H](CCCN=C(N)N)NC(=O)[C@H](CCCN=C(N)N)NC(=O)[C@H](Cc1c[nH]c2ccccc12)NC(=O)[C@@H](N)CCCCN)C(N)=O` [KWRRWQWRRWK]?
**A.** MIC (Escherichia coli UB1005): 8 µM (≈ 14.2 µg/mL); MIC [26]: 16 µM (≈ 28.3 µg/mL); MIC [27]: ≥ 128 µM; MIC [21]: 32 µM (≈ 56.7 µg/mL); MIC [28]: 16 µM (≈ 28.3 µg/mL); MIC [23]: 32 µM (≈ 56.7 µg/mL); MIC [10]: 8 µM (≈ 14.2 µg/mL); MIC [25]: 8 µM (≈ 14.2 µg/mL)
